How the values were obtained:
[1] = test system: NCI-H460, human non-small cell lung cancer cells; assay: Cell-MTS proliferation assay, NCI-H460; type: cell-based; conditions: Homo sapiens; Cell-MTS proliferation, NCI-H460 cells, 168 hr
Method in brief: (§1)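 Cells were seeded per 96-well at densities giving ~90% confluence by day 7 (Raji 15,000, HL-60 5,000, NCI-H460 3,000) and dosed 24 hr later with an 11-point dilution, 100 μM to 2.0 nM final. Seven-day MTS colorimetric read at OD490; IC50 from background-subtracted, DMSO-normalised values.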

[2] = test system: HL-60, human proleukemia cells; assay: Cell-MTS proliferation assay, HL-60; type: cell-based; conditions: Homo sapiens; Cell-MTS proliferation, HL-60 cells, 168 hr
Method in brief: as §1

[3] = test system: Raji, human Burkitts lymphoma cells; assay: Cell-MTS proliferation assay, Raji; type: cell-based; conditions: Homo sapiens; Cell-MTS proliferation, Raji cells, 168 hr
Method in brief: as §1

BRD4(BD1) = BRD4(BD1) (Homo sapiens (Human), UniProt O60885); assay: In vitro enzyme inhibition assay (BRD4 AlphaScreen); type: binding; conditions: in vitro enzyme inhibition assay
Method in brief: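 AlphaScreen proximity readout, using streptavidin donor and Ni-chelate acceptor beads at 5 μg/mL final, monitors biotin-H4 tetraacetylated peptide interaction with purified His-tagged BRD4.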

| Compound | IC50 [1] | IC50 [2] | IC50 [3] | IC50 (BRD4(BD1)) |
| --- | --- | --- | --- | --- |
| Cc1cc(-c2cc(S(C)(=O)=O)ccc2OC2CCCC2)cn(C)c1=O [Example 419, 5-(2-cyclopentyloxy-5-methylsulfonylphenyl)-1,3-dimethylpyridin-2-one] | > 5000 nM | < 500 nM | 500 to 5000 nM | < 500 nM |
| Cc1cc(-c2cc(S(C)(=O)=O)ccc2OC2CCOCC2)cn(C)c1=O [Example 420, 1,3-dimethyl-5-[5-methylsulfonyl-2-(oxan-4-yloxy)phenyl]pyridin-2-one] | > 5000 nM | < 500 nM | 500 to 5000 nM | < 500 nM |
| Cc1cc(-c2cc(S(C)(=O)=O)ccc2OC2CCOC2)cn(C)c1=O (stereo not shown) [Example 426, 1,3-dimethyl-5-[5-methylsulfonyl-2-(oxolan-3-yloxy)phenyl]pyridin-2-one] | > 5000 nM | 500 to 5000 nM | 500 to 5000 nM | < 500 nM |
| Cc1cc(-c2cc(CS(C)(=O)=O)ccc2OCC(F)(F)F)cn(C)c1=O [Example 427, 1,3-dimethyl-5-[5-(methylsulfonylmethyl)-2-(2,2,2-trifluoroethoxy)phenyl]pyridin-2-one] | > 5000 nM | < 500 nM | < 500 nM | < 500 nM |
| CCn1cc(-c2cc(S(C)(=O)=O)ccc2NCC2CC2)cc(C)c1=O [Example 428, 5-[2-(cyclopropylmethylamino)-5-methylsulfonylphenyl]-1-ethyl-3-methylpyridin-2-one] | > 5000 nM | 500 to 5000 nM | 500 to 5000 nM | < 500 nM |
| CCn1cc(-c2cc(CS(C)(=O)=O)ccc2Oc2ccc(F)cc2F)cc(C)c1=O [Example 429, 5-[2-(2,4-difluorophenoxy)-5-(methylsulfonylmethyl)phenyl]-1-ethyl-3-methylpyridin-2-one] | > 5000 nM | < 500 nM | < 500 nM | < 500 nM |
| CCS(=O)(=O)Nc1ccc(O[C@H]2CC[C@H](O)CC2)c(-c2cc(C)c(=O)n(C)c2)c1 [Example 430, N-[3-(1,5-dimethyl-6-oxopyridin-3-yl)-4-(trans-4-hydroxycyclohexyl)oxyphenyl]ethanesulfonamide] | > 5000 nM | < 500 nM | < 500 nM | < 500 nM |
| CCS(=O)(=O)Nc1ccc(O[C@H]2CC[C@@H](O)CC2)c(-c2cc(C)c(=O)n(C)c2)c1 [Example 431, N-[3-(1,5-dimethyl-6-oxopyridin-3-yl)-4-(cis-4-hydroxycyclohexyl)oxyphenyl]ethanesulfonamide] | > 5000 nM | < 500 nM | 500 to 5000 nM | < 500 nM |
| Cc1cc(-c2cc(NS(C)(=O)=O)ccc2O[C@H]2CC[C@H](O)CC2)cn(C)c1=O [Example 433, N-[3-(1,5-dimethyl-6-oxopyridin-3-yl)-4-(trans-4-hydroxycyclohexyl)oxyphenyl]methanesulfonamide] | > 5000 nM | < 500 nM | < 500 nM | < 500 nM |
| Cc1cc(-c2cc(NS(C)(=O)=O)ccc2O[C@H]2CC[C@@H](O)CC2)cn(C)c1=O [Example 434, N-[3-(1,5-dimethyl-6-oxopyridin-3-yl)-4-(cis-4-hydroxycyclohexyl)oxyphenyl] methanesulfonamide] | > 5000 nM | 500 to 5000 nM | 500 to 5000 nM | < 500 nM |
| Cc1cc(-c2cc(S(C)(=O)=O)ccc2NC2CCOCC2)cn(C)c1=O [Example 436, 1,3-dimethyl-5-[5-methylsulfonyl-2-(oxan-4-ylamino)phenyl]pyridin-2-one] | > 5000 nM | < 500 nM | 500 to 5000 nM | < 500 nM |
| Cn1cc(-c2cc(CS(C)(=O)=O)ccc2Oc2ccc(F)cc2F)cc(F)c1=O [Example 437, 5-[2-(2,4-difluorophenoxy)-5-(methylsulfonylmethyl)phenyl]-3-fluoro-1-methylpyridin-2-one] | > 5000 nM | < 500 nM | < 500 nM | < 500 nM |
| CN(C)c1cc(-c2cc(S(C)(=O)=O)ccc2NCC2CC2)cn(C)c1=O [Example 438, 5-[2-(cyclopropylmethylamino)-5-methylsulfonylphenyl]-3-(dimethylamino)-1-methylpyridin-2-one] | > 5000 nM | < 500 nM | < 500 nM | < 500 nM |
| Cc1cc(-c2cc(NS(C)(=O)=O)ccc2OC2CCOCC2)cn(C)c1=O [Example 439, N-[3-(1,5-dimethyl-6-oxopyridin-3-yl)-4-(oxan-4-yloxy)phenyl] methanesulfonamide] | > 5000 nM | < 500 nM | < 500 nM | < 500 nM |
| CCS(=O)(=O)c1ccc(NCC2CC2)c(-c2cc(N(C)C)c(=O)n(C)c2)c1 [Example 440, 5-[2-(cyclopropylmethylamino)-5-ethylsulfonylphenyl]-3-(dimethylamino)-1-methylpyridin-2-one] | > 5000 nM | < 500 nM | < 500 nM | < 500 nM |
| CCS(=O)(=O)Nc1ccc(OC2CCOCC2)c(-c2cc(C)c(=O)n(C)c2)c1 [Example 441, N-[3-(1,5-dimethyl-6-oxopyridin-3-yl)-4-(oxan-4-yloxy)phenyl]ethanesulfonamide] | > 5000 nM | < 500 nM | < 500 nM | < 500 nM |
| COc1cc(-c2cc(NS(C)(=O)=O)ccc2Oc2ccc(F)cc2F)cn(C)c1=O [Example 442, N-[4-(2,4-difluorophenoxy)-3-(5-methoxy-1-methyl-6-oxopyridin-3-yl)phenyl]methanesulfonamide] | > 5000 nM | < 500 nM | < 500 nM | < 500 nM |
| CCS(=O)(=O)Nc1ccc(Oc2ccc(F)cc2F)c(-c2cc(OC)c(=O)n(C)c2)c1 [Example 443, N-[4-(2,4-difluorophenoxy)-3-(5-methoxy-1-methyl-6-oxopyridin-3-yl)phenyl]ethanesulfonamide] | > 5000 nM | < 500 nM | < 500 nM | < 500 nM |
| Cc1cc(-c2cc(NS(C)(=O)=O)ccc2OC2CCOC2)cn(C)c1=O (stereo not shown) [Example 444, N-[3-(1,5-dimethyl-6-oxopyridin-3-yl)-4-(oxolan-3-yloxy)phenyl] methanesulfonamide] | > 5000 nM | < 500 nM | < 500 nM | < 500 nM |
| CCS(=O)(=O)Nc1ccc(OC2CCOC2)c(-c2cc(C)c(=O)n(C)c2)c1 (stereo not shown) [Example 445, N-[3-(1,5-dimethyl-6-oxopyridin-3-yl)-4-(oxolan-3-yloxy)phenyl]ethanesulfonamide] | > 5000 nM | < 500 nM | < 500 nM | < 500 nM |
| Cc1cc(-c2cc(NS(C)(=O)=O)ccc2OC2CCCOC2)cn(C)c1=O (stereo not shown) [Example 446, N-[3-(1,5-dimethyl-6-oxopyridin-3-yl)-4-(oxan-3-yloxy)phenyl] methanesulfonamide] | > 5000 nM | < 500 nM | < 500 nM | < 500 nM |
| Cc1cc(-c2cc(NS(C)(=O)=O)ccc2OC2CCC(F)(F)CC2)cn(C)c1=O [Example 447, N-[4-(4,4-difluorocyclohexyl)oxy-3-(1,5-dimethyl-6-oxopyridin-3-yl)phenyl]methanesulfonamide] | > 5000 nM | < 500 nM | < 500 nM | < 500 nM |
